In the NIST ThermoML archive (doi:10.1016/j.jct.2011.12.024):
± gives the expanded uncertainty stated by the source.

What was measured:
[1] = 101.33 kPa, Liquid, Vibrating tube method
[2] = refractive index (other wavelength) (dimensionless); conditions: 101.33 kPa, Liquid, Wavelength=632.8 nm, Standard Abbe refractometry
[3] = refractive index (other wavelength) (dimensionless); xn = mol fraction of the nth substance listed; conditions: 101.33 kPa, Liquid, Wavelength=632.8 nm, Standard Abbe refractometry

COC(=O)CCCCC(=O)OC [dimethyl 1,6-hexanedioate]
Conditions	mass density [kg/m3]	refractive index
[1], 281.15 K	1073.09 ± 0.29	–
[1], 282.15 K	1072.12 ± 0.29	–
[1], 283.15 K	1071.14 ± 0.29	–
[1], 284.15 K	1070.17 ± 0.29	–
[1], 285.15 K	1069.19 ± 0.28	–
[1], 286.15 K	1068.21 ± 0.28	–
[1], 287.15 K	1067.24 ± 0.28	–
[1], 288.15 K	1066.26 ± 0.28	–
[1], 289.15 K	1065.29 ± 0.28	–
[1], 290.15 K	1064.32 ± 0.28	–
[1], 291.15 K	1063.34 ± 0.28	–
[1], 292.15 K	1062.37 ± 0.28	–
[1], 293.15 K	1061.39 ± 0.28	–
[1], 294.15 K	1060.42 ± 0.28	–
[1], 295.15 K	1059.45 ± 0.28	–
[1], 296.15 K	1058.47 ± 0.28	–
[1], 297.15 K	1057.5 ± 0.28	–
[1], 298.15 K	1056.52 ± 0.28	–
[1], 299.15 K	1055.55 ± 0.27	–
[1], 300.15 K	1054.58 ± 0.27	–
[1], 301.15 K	1053.6 ± 0.27	–
[1], 302.15 K	1052.63 ± 0.27	–
[1], 303.15 K	1051.65 ± 0.27	–
[1], 304.15 K	1050.68 ± 0.27	–
[1], 305.15 K	1049.7 ± 0.27	–
[1], 306.15 K	1048.73 ± 0.27	–
[1], 307.15 K	1047.75 ± 0.27	–
[1], 308.15 K	1046.78 ± 0.27	–
[2], 283.48 K	–	1.4312 ± 0.0004
[2], 284.37 K	–	1.4309 ± 0.0004
[2], 285.28 K	–	1.4305 ± 0.0004
[2], 286.1 K	–	1.4302 ± 0.0004
[2], 286.92 K	–	1.4298 ± 0.0004
[2], 287.65 K	–	1.4296 ± 0.0004
[2], 288.49 K	–	1.4292 ± 0.0004

COC(=O)CCCCC(=O)OC [dimethyl 1,6-hexanedioate] + CCCCCC
[3], 289.28 K
Conditions	refractive index
x1 = 0.101	1.3821 ± 0.0006
x1 = 0.202	1.3884 ± 0.0005
x1 = 0.301	1.3944 ± 0.0005
x1 = 0.394	1.3998 ± 0.0005
x1 = 0.5	1.4056 ± 0.0005
x1 = 0.599	1.4107 ± 0.0005
x1 = 0.706	1.416 ± 0.001
x1 = 0.799	1.4203 ± 0.0005
x1 = 0.882	1.4239 ± 0.0005

CCCCCCC [heptane] + COC(=O)CCCCC(=O)OC
[3], x2 = 0
Conditions	refractive index
289.62 K	1.3883 ± 0.0004
290.68 K	1.3878 ± 0.0004
291.71 K	1.3873 ± 0.0004
292.7 K	1.3868 ± 0.0004
293.74 K	1.3863 ± 0.0004
294.71 K	1.3858 ± 0.0004
295.77 K	1.3853 ± 0.0004

CCCCCC [hexane]
[2]
Conditions	refractive index
283.72 K	1.3789 ± 0.0004
284.52 K	1.3785 ± 0.0004
285.35 K	1.3781 ± 0.0004
286.21 K	1.3776 ± 0.0004
287.1 K	1.3771 ± 0.0004
287.94 K	1.3767 ± 0.0004
288.71 K	1.3762 ± 0.0004
